Measurements: ChEMBL document CHEMBL4118179, “Synthesis and biological evaluation of 6-hydroxyl C-aryl glucoside derivatives as novel sodium glucose co-transporter 2 (SGLT2) inhibitors” (Bioorg Med Chem Lett, 2018)

Tests used:
[1] = molecular target: T1, Sodium/glucose cotransporter 2 (Homo sapiens) (UniProt P31639); test: Inhibition of full-length human SGLT2 expressed in CHO cells assessed as decrease in [14C]-methyl alpha-D-glucopyranoside uptake at 0.5 uM after 1 hr by liquid scintillation counting method; assay type: cell-based
T1 sequence (whole entry): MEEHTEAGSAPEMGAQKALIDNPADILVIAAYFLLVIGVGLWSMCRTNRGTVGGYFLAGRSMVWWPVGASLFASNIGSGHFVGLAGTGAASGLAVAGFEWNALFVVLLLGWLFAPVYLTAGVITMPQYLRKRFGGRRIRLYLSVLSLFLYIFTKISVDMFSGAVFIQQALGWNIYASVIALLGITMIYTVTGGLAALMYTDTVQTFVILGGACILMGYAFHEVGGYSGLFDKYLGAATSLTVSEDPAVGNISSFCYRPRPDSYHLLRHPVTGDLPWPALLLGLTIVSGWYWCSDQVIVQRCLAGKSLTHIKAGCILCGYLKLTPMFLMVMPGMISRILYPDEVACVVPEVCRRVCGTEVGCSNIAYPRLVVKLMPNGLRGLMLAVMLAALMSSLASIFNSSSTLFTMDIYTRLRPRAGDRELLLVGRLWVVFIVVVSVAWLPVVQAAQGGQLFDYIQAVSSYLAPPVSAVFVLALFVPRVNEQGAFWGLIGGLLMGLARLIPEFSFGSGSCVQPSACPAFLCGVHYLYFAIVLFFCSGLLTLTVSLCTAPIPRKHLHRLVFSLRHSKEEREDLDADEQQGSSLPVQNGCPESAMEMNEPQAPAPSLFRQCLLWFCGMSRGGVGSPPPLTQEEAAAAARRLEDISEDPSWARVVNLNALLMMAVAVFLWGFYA

[2] = molecular target: T2, Sodium/glucose cotransporter 2 (Homo sapiens, UniProt P31639); test: Inhibition of full-length human SGLT2 expressed in CHO cells assessed as decrease in [14C]-methyl alpha-D-glucopyranoside uptake after 1 hr by liquid scintillation counting method; assay type: cell-based
T2 sequence (P31639 whole entry): T1 sequence (whole entry)

Structure (SMILES): CCOc1ccc(Cc2ccc(O)c([C@@H]3O[C@H](CO)[C@@H](O)[C@H](O)[C@H]3O)c2)cc1
- inhibition [1]: 104%
- IC50 [2]: 12.2 nM

Structure (SMILES): Cc1ccc(Cc2cc([C@@H]3O[C@H](CO)[C@@H](O)[C@H](O)[C@H]3O)c(O)cc2Cl)cc1
- inhibition [1]: 101%
- IC50 [2]: 0.81 nM

Structure (SMILES): CCc1ccc(Cc2cc([C@@H]3O[C@H](CO)[C@@H](O)[C@H](O)[C@H]3O)c(O)cc2Cl)cc1
- inhibition [1]: 100%
- IC50 [2]: 0.63 nM

Structure (SMILES): OC[C@H]1O[C@H]2c3cc(Cc4cc5ccccc5s4)ccc3O[C@H]2[C@@H](O)[C@@H]1O
- inhibition [1]: 1.8%

Structure (SMILES): CCOc1ccc(Cc2cc([C@@H]3O[C@H](CO)[C@@H](O)[C@H](O)[C@H]3O)c(O)cc2Cl)cc1
- inhibition [1]: 89.7%
- IC50 [2]: 1.03 nM

Structure (SMILES): CCc1ccc(Cc2cc3c(cc2Cl)O[C@H]2[C@@H](O)[C@H](O)[C@@H](CO)O[C@@H]32)cc1
- inhibition [1]: 19.3%

Structure (SMILES): OC[C@H]1O[C@@H](c2cc(Cc3cc4ccccc4s3)c(Cl)cc2O)[C@H](O)[C@@H](O)[C@@H]1O
- inhibition [1]: 97.5%

Structure (SMILES): COc1ccc(Cc2cc([C@@H]3O[C@H](CO)[C@@H](O)[C@H](O)[C@H]3O)c(O)cc2Cl)cc1
- inhibition [1]: 106%
- IC50 [2]: 1.08 nM

Structure (SMILES): CCOc1ccc(Cc2cc([C@@H]3O[C@H](CO)[C@@H](O)[C@H](O)[C@H]3O)ccc2Cl)cc1
- inhibition [1]: 103%

Structure (SMILES): OC[C@H]1O[C@H]2c3cc(Cc4cc5ccccc5s4)c(Cl)cc3O[C@H]2[C@@H](O)[C@@H]1O
- inhibition [1]: 48.7%

Structure (SMILES): OC[C@H]1O[C@@H](c2cc(Cc3cc4ccccc4s3)ccc2O)[C@H](O)[C@@H](O)[C@@H]1O
- inhibition [1]: 103%

Structure (SMILES): Cc1ccc(Cc2cc3c(cc2Cl)O[C@H]2[C@@H](O)[C@H](O)[C@@H](CO)O[C@@H]32)cc1
- inhibition [1]: 4.2%

Structure (SMILES): CCOc1ccc(Cc2cc3c(cc2Cl)O[C@H]2[C@@H](O)[C@H](O)[C@@H](CO)O[C@@H]32)cc1
- inhibition [1]: 8.6%

Structure (SMILES): CCOc1ccc(Cc2ccc3c(c2)[C@@H]2O[C@H](CO)[C@@H](O)[C@H](O)[C@@H]2O3)cc1
- inhibition [1]: 66.5%

Structure (SMILES): COc1ccc(Cc2cc3c(cc2Cl)O[C@H]2[C@@H](O)[C@H](O)[C@@H](CO)O[C@@H]32)cc1
- inhibition [1]: 30.7%
